Reference: patent US8192962B2, “Processes for detecting toxic substances” (Daikin Industries, Ltd., priority 2001, dated 2012)

Test system: Detoxification protein genes
Assay: DNA chip mRNA expression in yeast, detoxification protein genes (Table 8)
Assay type: cell-based, Saccharomyces cerevisiae S288C
How it was run: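 Ratios compare mRNA levels in stressed and control S. cerevisiae. Each toxicant was applied for two hours to log-phase cultures at 25° C. at a sub-lethal, growth-inhibiting level; fluorescent cDNA (Cy3- or Cy5-dUTP) was hybridized to a genome-wide yeast chip for over 12 h at 65° C.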

For Na2As [(1)], the “The level of expressed mRNA in the presence of chemical substance/The level of expressed mRNA in the absence of chemical substance” value (yeast gene YBL064C) was 2.6, the “The level of expressed mRNA in the presence of chemical substance/The level of expressed mRNA in the absence of chemical substance” value (yeast gene YBR008C) was 3.0 and the “The level of expressed mRNA in the presence of chemical substance/The level of expressed mRNA in the absence of chemical substance” value (yeast gene YBR145W) was 1.5. The “The level of expressed mRNA in the presence of chemical substance/The level of expressed mRNA in the absence of chemical substance” value (yeast gene YBR244W) was 0.6, the “The level of expressed mRNA in the presence of chemical substance/The level of expressed mRNA in the absence of chemical substance” value (yeast gene YBR293W) was 1.9 and the “The level of expressed mRNA in the presence of chemical substance/The level of expressed mRNA in the absence of chemical substance” value (yeast gene YCL035C) was 2.0. The “The level of expressed mRNA in the presence of chemical substance/The level of expressed mRNA in the absence of chemical substance” value (yeast gene YCL069W) was 0.9, the “The level of expressed mRNA in the presence of chemical substance/The level of expressed mRNA in the absence of chemical substance” value (yeast gene YCR083W) was 1.1 and the “The level of expressed mRNA in the presence of chemical substance/The level of expressed mRNA in the absence of chemical substance” value (yeast gene YDL100C) was 1.0. The “The level of expressed mRNA in the presence of chemical substance/The level of expressed mRNA in the absence of chemical substance” value (yeast gene YDL168W) was 2.3, the “The level of expressed mRNA in the presence of chemical substance/The level of expressed mRNA in the absence of chemical substance” value (yeast gene YDR256C) was 0.8 and the “The level of expressed mRNA in the presence of chemical substance/The level of expressed mRNA in the absence of chemical substance” value (yeast gene YDR453C) was 1.1. For the same substance, the “The level of expressed mRNA in the presence of chemical substance/The level of expressed mRNA in the absence of chemical substance” value (yeast gene YDR513W) was 2.2, the “The level of expressed mRNA in the presence of chemical substance/The level of expressed mRNA in the absence of chemical substance” value (yeast gene YDR538W) was 0.9 and the “The level of expressed mRNA in the presence of chemical substance/The level of expressed mRNA in the absence of chemical substance” value (yeast gene YEL027W) was 1.2. For the same substance, the “The level of expressed mRNA in the presence of chemical substance/The level of expressed mRNA in the absence of chemical substance” value (yeast gene YEL065W) was 0.3, the “The level of expressed mRNA in the presence of chemical substance/The level of expressed mRNA in the absence of chemical substance” value (yeast gene YER185W) was 2.0 and the “The level of expressed mRNA in the presence of chemical substance/The level of expressed mRNA in the absence of chemical substance” value (yeast gene YFL050C) was 0.7. The “The level of expressed mRNA in the presence of chemical substance/The level of expressed mRNA in the absence of chemical substance” value (yeast gene YGL013C) was 0.9, the “The level of expressed mRNA in the presence of chemical substance/The level of expressed mRNA in the absence of chemical substance” value (yeast gene YGL254W) was 1.2 and the “The level of expressed mRNA in the presence of chemical substance/The level of expressed mRNA in the absence of chemical substance” value (yeast gene YGR088W) was 1.3. The “The level of expressed mRNA in the presence of chemical substance/The level of expressed mRNA in the absence of chemical substance” value (yeast gene YGR138C) was 1.1, the “The level of expressed mRNA in the presence of chemical substance/The level of expressed mRNA in the absence of chemical substance” value (yeast gene YGR197C) was 1.1 and the “The level of expressed mRNA in the presence of chemical substance/The level of expressed mRNA in the absence of chemical substance” value (yeast gene YGR209C) was 1.6. The “The level of expressed mRNA in the presence of chemical substance/The level of expressed mRNA in the absence of chemical substance” value (yeast gene YGR224W) was 0.9, the “The level of expressed mRNA in the presence of chemical substance/The level of expressed mRNA in the absence of chemical substance” value (yeast gene YHL040C) was 1.6 and the “The level of expressed mRNA in the presence of chemical substance/The level of expressed mRNA in the absence of chemical substance” value (yeast gene YHL047C) was 0.6. The “The level of expressed mRNA in the presence of chemical substance/The level of expressed mRNA in the absence of chemical substance” value (yeast gene YHR008C) was 1.3, the “The level of expressed mRNA in the presence of chemical substance/The level of expressed mRNA in the absence of chemical substance” value (yeast gene YHR048W) was 2.5 and the “The level of expressed mRNA in the presence of chemical substance/The level of expressed mRNA in the absence of chemical substance” value (yeast gene YHR053C) was 3.5. The “The level of expressed mRNA in the presence of chemical substance/The level of expressed mRNA in the absence of chemical substance” value (yeast gene YHR055C) was 4.4, the “The level of expressed mRNA in the presence of chemical substance/The level of expressed mRNA in the absence of chemical substance” value (yeast gene YIR002C) was 0.8 and the “The level of expressed mRNA in the presence of chemical substance/The level of expressed mRNA in the absence of chemical substance” value (yeast gene YIR038C) was 1.3. The “The level of expressed mRNA in the presence of chemical substance/The level of expressed mRNA in the absence of chemical substance” value (yeast gene YJL101C) was 2.1, the “The level of expressed mRNA in the presence of chemical substance/The level of expressed mRNA in the absence of chemical substance” value (yeast gene YJR104C) was 1.4 and the “The level of expressed mRNA in the presence of chemical substance/The level of expressed mRNA in the absence of chemical substance” value (yeast gene YKL026C) was 2.7. For the same substance, the “The level of expressed mRNA in the presence of chemical substance/The level of expressed mRNA in the absence of chemical substance” value (yeast gene YKL064W) was 0.6, the “The level of expressed mRNA in the presence of chemical substance/The level of expressed mRNA in the absence of chemical substance” value (yeast gene YKR066C) was 0.9 and the “The level of expressed mRNA in the presence of chemical substance/The level of expressed mRNA in the absence of chemical substance” value (yeast gene YKR105C) was 0.8. The “The level of expressed mRNA in the presence of chemical substance/The level of expressed mRNA in the absence of chemical substance” value (yeast gene YKR106W) was 1.3, the “The level of expressed mRNA in the presence of chemical substance/The level of expressed mRNA in the absence of chemical substance” value (yeast gene YLL028W) was 0.6 and the “The level of expressed mRNA in the presence of chemical substance/The level of expressed mRNA in the absence of chemical substance” value (yeast gene YLL057C) was 2.2. For the same substance, the “The level of expressed mRNA in the presence of chemical substance/The level of expressed mRNA in the absence of chemical substance” value (yeast gene YLL060C) was 12.5, the “The level of expressed mRNA in the presence of chemical substance/The level of expressed mRNA in the absence of chemical substance” value (yeast gene YLR043C) was 1.4 and the “The level of expressed mRNA in the presence of chemical substance/The level of expressed mRNA in the absence of chemical substance” value (yeast gene YLR046C) was 0.7. For the same substance, the “The level of expressed mRNA in the presence of chemical substance/The level of expressed mRNA in the absence of chemical substance” value (yeast gene YML028W) was 1.0, the “The level of expressed mRNA in the presence of chemical substance/The level of expressed mRNA in the absence of chemical substance” value (yeast gene YML116W) was 4.1 and the “The level of expressed mRNA in the presence of chemical substance/The level of expressed mRNA in the absence of chemical substance” value (yeast gene YMR015C) was 0.7. For the same substance, the “The level of expressed mRNA in the presence of chemical substance/The level of expressed mRNA in the absence of chemical substance” value (yeast gene YMR038C) was 1.9, the “The level of expressed mRNA in the presence of chemical substance/The level of expressed mRNA in the absence of chemical substance” value (yeast gene YNL239W) was 1.0 and the “The level of expressed mRNA in the presence of chemical substance/The level of expressed mRNA in the absence of chemical substance” value (yeast gene YNL241C) was 1.3. For the same substance, the “The level of expressed mRNA in the presence of chemical substance/The level of expressed mRNA in the absence of chemical substance” value (yeast gene YNL259C) was 1.6, the “The level of expressed mRNA in the presence of chemical substance/The level of expressed mRNA in the absence of chemical substance” value (yeast gene YOL158C) was 0.7 and the “The level of expressed mRNA in the presence of chemical substance/The level of expressed mRNA in the absence of chemical substance” value (yeast gene YOR031W) was 2.6. For the same substance, the “The level of expressed mRNA in the presence of chemical substance/The level of expressed mRNA in the absence of chemical substance” value (yeast gene YOR153W) was 1.6, the “The level of expressed mRNA in the presence of chemical substance/The level of expressed mRNA in the absence of chemical substance” value (yeast gene YOR247W) was 1.7 and the “The level of expressed mRNA in the presence of chemical substance/The level of expressed mRNA in the absence of chemical substance” value (yeast gene YOR251C) was 1.1. For the same substance, the “The level of expressed mRNA in the presence of chemical substance/The level of expressed mRNA in the absence of chemical substance” value (yeast gene YOR273C) was 0.7, the “The level of expressed mRNA in the presence of chemical substance/The level of expressed mRNA in the absence of chemical substance” value (yeast gene YPL163C) was 0.6 and the “The level of expressed mRNA in the presence of chemical substance/The level of expressed mRNA in the absence of chemical substance” value (yeast gene YPR200C) was 47.7.
